Test results published in patent publication US7781591B2, “Substituted 3-cyanopyridines as protein kinase inhibitors” (Wyeth LLC, priority 2006, dated 2010).

Target: T1, human PKCθ full length enzyme (Homo sapiens, UniProt Q04759)
T1 construct: human PKCθ full length enzyme (Panvera Cat# P2996); purchased Panvera P2996
Test: PKCθ IMAP assay (fluorescence polarization)
Type: biochemical
Details: not given

T1 sequence (Q04759 whole entry): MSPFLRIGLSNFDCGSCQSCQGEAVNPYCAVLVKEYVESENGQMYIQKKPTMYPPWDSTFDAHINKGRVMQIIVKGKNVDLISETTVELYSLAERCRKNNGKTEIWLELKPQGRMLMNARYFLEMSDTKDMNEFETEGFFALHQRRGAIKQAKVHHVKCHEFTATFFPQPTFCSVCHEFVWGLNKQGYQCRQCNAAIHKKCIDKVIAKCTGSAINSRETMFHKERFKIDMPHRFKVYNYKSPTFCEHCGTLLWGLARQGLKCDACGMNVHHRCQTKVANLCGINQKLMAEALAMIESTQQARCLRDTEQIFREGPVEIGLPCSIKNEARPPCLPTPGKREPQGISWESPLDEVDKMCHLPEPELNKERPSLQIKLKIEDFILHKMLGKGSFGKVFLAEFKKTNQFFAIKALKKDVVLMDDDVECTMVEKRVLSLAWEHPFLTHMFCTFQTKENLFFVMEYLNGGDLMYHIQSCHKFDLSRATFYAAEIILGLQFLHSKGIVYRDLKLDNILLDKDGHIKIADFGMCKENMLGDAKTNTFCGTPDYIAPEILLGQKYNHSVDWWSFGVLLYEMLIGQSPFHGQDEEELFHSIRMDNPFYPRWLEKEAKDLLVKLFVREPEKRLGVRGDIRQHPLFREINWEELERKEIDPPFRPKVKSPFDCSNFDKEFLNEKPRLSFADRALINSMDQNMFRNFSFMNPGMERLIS

`Cc1c(Nc2c(C#N)cncc2-c2ccc(OCCNCCN(C)C)cc2)ccc2[nH]ccc12` [Compound 417, 5-[4-(2-{[2-(dimethylamino)ethyl]amino}ethoxy)phenyl]-4-[(4-methyl-1H-indol-5-yl)amino]nicotinonitrile] was tested, and the IC50 was 6 nM.

Same assay, conditions: human PKCθ full length enzyme, IMAP; average value; read-out: IC50 PKCθ IMAP

Point of comparison: `CCN1CCN(CCOc2ccc(-c3cncc(C#N)c3Nc3ccc4[nH]ccc4c3C)cc2)CC1` [Compound 425, 5-{4-[2-(4-ethylpiperazin-1-yl)ethoxy]phenyl}-4-[(4-methyl-1H-indol-5-yl)amino]nicotinonitrile], IC50 9 nM. Against it:
- COc1ccc(-c2cncc(C#N)c2NC[C@H]2CC[C@H](N)CC2)cc1OC [Compound 442, 4-{[(trans-4-aminocyclohexyl)methyl]amino}-5-(3,4-dimethoxyphenyl)nicotinonitrile] — 200-fold higher, 1770 nM
- COc1ccccc1-c1cncc(C#N)c1Nc1cccc2[nH]ccc12 [Compound 324, 4-(1H-indol-4-ylamino)-5-(2-methoxyphenyl)nicotinonitrile] — 2.2-fold higher, 20 nM
- N#Cc1cncc(-c2cc3cc(CNCc4ccncc4)ccc3s2)c1Nc1cccc2[nH]ccc12 [Compound 290, 4-(1H-indol-4-ylamino)-5-(5-{[(pyridin-4-ylmethyl)amino]methyl}-1-benzothien-2-yl)nicotinonitrile] — 2.2-fold lower, 4 nM
- Cc1c(Nc2c(C#N)cncc2-c2ccc3c(c2)sc2ccccc23)ccc2[nH]ccc12 [Compound 593, 5-(dibenzo[b,d]thiophen-3-yl)-4-(4-methyl-1H-indol-5-ylamino)nicotinonitrile] — 13-fold higher, 120 nM
- N#Cc1cncc(-c2cccc(CN)c2)c1Nc1cccc2[nH]ccc12 [Compound 328, 5-[3-(aminomethyl)phenyl]-4-(1H-indol-4-ylamino)nicotinonitrile] — 2.2-fold higher, 20 nM
- N#Cc1cncc(-c2ccc(OC[C@@H](N)Cc3ccccc3)cc2)c1Nc1cccc2[nH]ccc12 [Compound 226, 5-(4-{[(2S)-2-amino-3-phenylpropyl]oxy}phenyl)-4-(1H-indol-4-ylamino)nicotinonitrile] — 3-fold lower, 3 nM
- N#Cc1cncc(-c2cc3cc(CNCCN4CCOCC4)ccc3s2)c1Nc1cccc2[nH]ccc12 [Compound 282, 4-(1H-indol-4-ylamino)-5-(5-{[(2-morpholin-4-ylethyl)amino]methyl}-1-benzothien-2-yl)nicotinonitrile] — 3-fold lower, 3 nM
- 4-[(4-methyl-1H-indol-5-yl)amino]-5-[5-(pyrrolidin-1-ylmethyl)-2-furyl]nicotinonitrile [Compound 410] — 3.9-fold higher, 35 nM
- Cc1c(Nc2c(C#N)cncc2-c2coc(CN3CCN(C)CC3)c2)ccc2[nH]ccc12 [Compound 503, 4-[(4-methyl-1H-indol-5-yl)amino]-5-{5-[(4-methylpiperazin-1-yl)methyl]-3-furyl}nicotinonitrile] — within 1.5-fold, 12 nM
- N#Cc1cncc(-c2cccc(-c3ccc(C(=O)NC4CCCC4)cc3)c2)c1Nc1ccc2[nH]ccc2c1 [Compound 123, 3′-[5-cyano-4-(1H-indol-5-ylamino)pyridin-3-yl]-N-cyclopentylbiphenyl-4-carboxamide] — 20-fold higher, 180 nM
- Cc1c(Nc2c(C#N)cncc2-c2cc3cc(CN(C)CC(O)CO)ccc3o2)ccc2[nH]ccc12 (stereo not shown) [Compound 386, 5-(5-{[(2,3-dihydroxypropyl)(methyl)amino]methyl}-1-benzofuran-2-yl)-4-[(4-methyl-1H-indol-5-yl)amino]nicotinonitrile] — 1.8-fold lower, 5 nM
- 4-(1H-indol-4-ylamino)-5-[4-methoxy-3-(2-{[2-(1-methylpyrrolidin-2-yl)ethyl]amino}ethoxy)phenyl]nicotinonitrile [Compound 341] — 3-fold lower, 3 nM
- N#Cc1cncc(-c2cccc(-c3ccc(C(=O)NCCO)cc3)c2)c1Nc1cccc2[nH]ccc12 [Compound 216, 3′-[5-cyano-4-(1H-indol-4-ylamino)pyridin-3-yl]-N-(2-hydroxyethyl)biphenyl-4-carboxamide] — 5.6-fold higher, 50 nM
- Cc1c(Nc2c(C#N)cncc2-c2ccc(OCCCl)cc2)ccc2[nH]ccc12 [Compound 348, 5-[4-(2-chloroethoxy)phenyl]-4-[(4-methyl-1H-indol-5-yl)amino]nicotinonitrile] — 2.2-fold lower, 4 nM
- Cc1c(Nc2c(C#N)cncc2-c2cc3cc(CN4CCN(C)CC4)ccc3o2)cc(Cl)c2[nH]ccc12 [Compound 529, 4-[(7-chloro-4-methyl-1H-indol-5-yl)amino]-5-{5-[(4-methylpiperazin-1-yl)methyl]-1-benzofuran-2-yl}nicotinonitrile] — 4.5-fold lower, 2 nM
- COc1ccc(-c2cncc(C#N)c2Nc2cccc3[nH]ccc23)cc1OCCNCCCn1ccnc1 [Compound 365, 5-[3-(2-{[3-(1H-imidazol-1-yl)propyl]amino}ethoxy)-4-methoxyphenyl]-4-(1H-indol-4-ylamino)nicotinonitrile] — 2.2-fold lower, 4 nM
- CC(=O)Nc1cccc(-c2cncc(C#N)c2Nc2ccc3[nH]ccc3c2C)c1 [Compound 578, N-(3-{5-cyano-4-[(4-methyl-1H-indol-5-yl)amino]pyridin-3-yl}phenyl)acetamide] — 11-fold higher, 97 nM
- COCCOc1ccc(-c2cncc(C#N)c2Nc2ccc3[nH]ccc3c2C)cc1OC [Compound 478, 5-[3-methoxy-4-(2-methoxyethoxy)phenyl]-4-[(4-methyl-1H-indol-5-yl)amino]nicotinonitrile] — within 1.5-fold, 11 nM
- Cc1c(Nc2c(C#N)cncc2-c2ccccn2)ccc2[nH]ccc12 [Compound 565, 4′-[(4-methyl-1H-indol-5-yl)amino]-2,3′-bipyridine-5′-carbonitrile] — 2.4-fold higher, 22 nM
- COc1cc(-c2cncc(C#N)c2Nc2ccc3[nH]ccc3c2C)ccc1OCCCl [Compound 372, 5-[4-(2-chloroethoxy)-3-methoxyphenyl]-4-[(4-methyl-1H-indol-5-yl)amino]nicotinonitrile] — within 1.5-fold, 7 nM
- Cc1c(Nc2c(C#N)cncc2-c2cc3cc(CN4CCC(N5CCCC5)CC4)ccc3o2)ccc2[nH]ccc12 [Compound 393, 4-[(4-methyl-1H-indol-5-yl)amino]-5-{5-[(4-pyrrolidin-1-ylpiperidin-1-yl)methyl]-1-benzofuran-2-yl}nicotinonitrile] — 9-fold lower, 1 nM
- Cc1c(Nc2c(C#N)cncc2-c2ccc(CN3CCOCC3)o2)ccc2[nH]ccc12 [Compound 401, 4-[(4-methyl-1H-indol-5-yl)amino]-5-[5-(morpholin-4-ylmethyl)-2-furyl]nicotinonitrile] — within 1.5-fold, 8 nM
- Cc1cc2[nH]ccc2cc1Nc1c(C#N)cncc1-c1ccc(OCCN2CCCCC2)cc1 [Compound 504, 4-[(6-methyl-1H-indol-5-yl)amino]-5-[4-(2-piperidin-1-ylethoxy)phenyl]nicotinonitrile] — 9.3-fold higher, 84 nM
- CN(C)c1ccc(-c2cncc(C#N)c2Nc2ccc3cn[nH]c3c2)cc1 [Compound 293, 5-[4-(dimethylamino)phenyl]-4-(1H-indazol-6-ylamino)nicotinonitrile] — 4000-fold higher, 36000 nM
- CN(C)Cc1ccc(-c2cccc(-c3cncc(C#N)c3Nc3ccc4[nH]ccc4c3)c2)s1 [Compound 187, 5-(3-{5-[(dimethylamino)methyl]-2-thienyl}phenyl)-4-(1H-indol-5-ylamino)nicotinonitrile] — 12-fold higher, 110 nM
- COc1ccc(-c2cncc(C#N)c2Nc2ccc3[nH]ccc3c2)cc1OCCNCc1ccco1 [Compound 245, 5-(3-{2-[(2-furylmethyl)amino]ethoxy}-4-methoxyphenyl)-4-(1H-indol-5-ylamino)nicotinonitrile] — 30-fold higher, 270 nM
